The IC50 is the concentration needed to halve the response being measured. Broadly, the EC50 is the midpoint of the concentration-response curve. As usually defined, the AC50 is the concentration giving half of the maximal activity seen.

Active and inactive are the calls of the source.

The target of experiment [1] is T1, Hexokinase HKDC1 (Homo sapiens, UniProt Q2TB90).
T1 sequence (Q2TB90 whole entry): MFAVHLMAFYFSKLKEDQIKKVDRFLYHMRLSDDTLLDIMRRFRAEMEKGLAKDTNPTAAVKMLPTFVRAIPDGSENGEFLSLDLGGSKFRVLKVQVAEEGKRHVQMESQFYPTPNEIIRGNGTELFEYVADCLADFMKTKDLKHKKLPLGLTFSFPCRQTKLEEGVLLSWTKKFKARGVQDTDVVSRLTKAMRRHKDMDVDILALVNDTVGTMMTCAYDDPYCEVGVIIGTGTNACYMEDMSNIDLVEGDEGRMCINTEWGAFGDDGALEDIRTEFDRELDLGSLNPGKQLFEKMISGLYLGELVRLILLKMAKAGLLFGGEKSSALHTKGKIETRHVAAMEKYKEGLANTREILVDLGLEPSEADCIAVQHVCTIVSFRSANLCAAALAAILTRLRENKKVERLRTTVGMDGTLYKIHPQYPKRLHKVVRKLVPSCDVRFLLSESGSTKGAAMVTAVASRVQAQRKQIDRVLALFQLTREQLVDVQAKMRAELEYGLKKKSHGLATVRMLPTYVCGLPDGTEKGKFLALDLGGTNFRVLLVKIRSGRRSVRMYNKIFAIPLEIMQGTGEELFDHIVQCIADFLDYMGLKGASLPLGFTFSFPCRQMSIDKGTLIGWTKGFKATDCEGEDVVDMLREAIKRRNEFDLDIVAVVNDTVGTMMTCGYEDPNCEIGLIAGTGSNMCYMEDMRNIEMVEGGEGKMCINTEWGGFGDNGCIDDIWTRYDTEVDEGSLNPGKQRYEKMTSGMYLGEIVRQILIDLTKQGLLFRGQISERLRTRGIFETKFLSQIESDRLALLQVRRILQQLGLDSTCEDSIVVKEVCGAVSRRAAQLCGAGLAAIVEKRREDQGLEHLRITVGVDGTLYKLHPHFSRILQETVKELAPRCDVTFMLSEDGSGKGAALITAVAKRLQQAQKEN
The experiment in a line: analog inhibition of human HKDC1 activity – biochemical, set 2, SAR follow-up (AID 588355). The format is functional.

In experiment [2] the target is T2, Protein RecA (Mycobacterium tuberculosis, UniProt P9WHJ3).
T2 sequence (P9WHJ3 whole entry): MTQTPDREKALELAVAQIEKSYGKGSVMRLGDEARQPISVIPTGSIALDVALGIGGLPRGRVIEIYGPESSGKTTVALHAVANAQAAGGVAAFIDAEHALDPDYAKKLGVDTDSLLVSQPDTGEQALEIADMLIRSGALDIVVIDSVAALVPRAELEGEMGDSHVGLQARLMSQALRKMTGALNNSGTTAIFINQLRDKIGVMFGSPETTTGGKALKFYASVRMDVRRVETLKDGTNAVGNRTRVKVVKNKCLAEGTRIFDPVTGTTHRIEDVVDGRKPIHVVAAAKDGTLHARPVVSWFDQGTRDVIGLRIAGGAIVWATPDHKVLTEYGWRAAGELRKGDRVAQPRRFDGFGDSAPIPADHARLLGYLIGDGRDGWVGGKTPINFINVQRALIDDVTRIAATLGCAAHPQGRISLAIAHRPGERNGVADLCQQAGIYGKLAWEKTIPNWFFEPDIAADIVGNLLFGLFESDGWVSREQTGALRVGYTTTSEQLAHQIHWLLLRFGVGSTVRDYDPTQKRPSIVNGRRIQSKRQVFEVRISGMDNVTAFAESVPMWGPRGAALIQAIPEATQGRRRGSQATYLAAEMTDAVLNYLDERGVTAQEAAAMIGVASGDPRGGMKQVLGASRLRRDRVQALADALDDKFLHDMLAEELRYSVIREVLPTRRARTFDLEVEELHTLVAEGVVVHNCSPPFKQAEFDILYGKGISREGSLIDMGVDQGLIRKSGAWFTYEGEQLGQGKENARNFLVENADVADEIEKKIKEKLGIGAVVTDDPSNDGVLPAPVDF
Nature of the experiment: Fluorescence Cell-Free Homogeneous Dose Retest to Identify Inhibitors of RecA-Intein Splicing Activity. [Related pubchem assays (depositor defined):AID2097, AID2223, AID489010, AID492950]. The format is functional.

Experiment [3] concerns the target T1, Hexokinase HKDC1. Nature of the experiment: inhibition of HKDC1 glucose phosphorylation – biochemical, W721R variant, dose response (AID 504729). The format is functional.
Experiment [4] in a line: blockers of CAL PDZ ligand groove binding – biochemical, fluorescence polarization, untagged CAL PDZ, cherry-pick, dose response (AID 602267). The class given is functional. (In general: In fluorescence polarisation assays a small probe gives low polarisation when free and higher when bound to something large.)
Experiment [5] has as its target Cystic fibrosis transmembrane conductance regulator/Golgi-associated PDZ and coiled-coil motif-containing protein (Homo sapiens, UniProt P13569+Q9HD26). The experiment in a line: potency against CAL PDZ-peptide interaction – biochemical, fluorescence polarization, Cerulean-tagged CAL PDZ, cherry-picks, dose response (AID 504773).
In experiment [6] the target is T3, Caspase-6 (Homo sapiens, UniProt P55212).
T3 sequence (P55212 whole entry): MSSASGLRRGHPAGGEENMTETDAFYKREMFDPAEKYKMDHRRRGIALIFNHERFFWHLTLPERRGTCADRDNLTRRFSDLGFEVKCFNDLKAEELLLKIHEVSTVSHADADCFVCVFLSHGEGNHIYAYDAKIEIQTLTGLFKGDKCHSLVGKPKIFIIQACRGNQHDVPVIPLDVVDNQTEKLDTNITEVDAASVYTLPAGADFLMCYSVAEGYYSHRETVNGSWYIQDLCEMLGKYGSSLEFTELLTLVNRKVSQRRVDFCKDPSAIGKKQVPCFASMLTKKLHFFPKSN
Nature of the experiment: inhibition of CASP6 peptide cleavage – biochemical, VEID-R110 fluorescence, cherry-pick, dose response (AID 720632).

The target of experiment [7] is T4, Tyrosyl-DNA phosphodiesterase 2 (Homo sapiens, UniProt O95551).
T4 sequence (O95551 whole entry): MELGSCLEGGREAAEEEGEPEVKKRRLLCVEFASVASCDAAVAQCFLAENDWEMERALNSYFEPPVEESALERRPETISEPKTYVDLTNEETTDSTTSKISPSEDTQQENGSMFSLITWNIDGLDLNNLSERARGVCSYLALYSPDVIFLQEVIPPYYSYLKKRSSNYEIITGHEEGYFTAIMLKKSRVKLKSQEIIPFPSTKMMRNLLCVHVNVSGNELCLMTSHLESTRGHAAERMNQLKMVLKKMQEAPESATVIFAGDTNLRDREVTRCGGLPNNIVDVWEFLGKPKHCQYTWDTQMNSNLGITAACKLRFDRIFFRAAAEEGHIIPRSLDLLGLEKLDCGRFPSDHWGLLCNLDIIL
Nature of the experiment: potency against TDP2 phosphodiesterase activity – biochemical, epi absorbance, IC50, dose response (AID 743297).

The target of experiment [8] is T5, Replicative DNA helicase DnaB (Mycobacterium tuberculosis, UniProt P9WMR3).
T5 sequence (P9WMR3 whole entry): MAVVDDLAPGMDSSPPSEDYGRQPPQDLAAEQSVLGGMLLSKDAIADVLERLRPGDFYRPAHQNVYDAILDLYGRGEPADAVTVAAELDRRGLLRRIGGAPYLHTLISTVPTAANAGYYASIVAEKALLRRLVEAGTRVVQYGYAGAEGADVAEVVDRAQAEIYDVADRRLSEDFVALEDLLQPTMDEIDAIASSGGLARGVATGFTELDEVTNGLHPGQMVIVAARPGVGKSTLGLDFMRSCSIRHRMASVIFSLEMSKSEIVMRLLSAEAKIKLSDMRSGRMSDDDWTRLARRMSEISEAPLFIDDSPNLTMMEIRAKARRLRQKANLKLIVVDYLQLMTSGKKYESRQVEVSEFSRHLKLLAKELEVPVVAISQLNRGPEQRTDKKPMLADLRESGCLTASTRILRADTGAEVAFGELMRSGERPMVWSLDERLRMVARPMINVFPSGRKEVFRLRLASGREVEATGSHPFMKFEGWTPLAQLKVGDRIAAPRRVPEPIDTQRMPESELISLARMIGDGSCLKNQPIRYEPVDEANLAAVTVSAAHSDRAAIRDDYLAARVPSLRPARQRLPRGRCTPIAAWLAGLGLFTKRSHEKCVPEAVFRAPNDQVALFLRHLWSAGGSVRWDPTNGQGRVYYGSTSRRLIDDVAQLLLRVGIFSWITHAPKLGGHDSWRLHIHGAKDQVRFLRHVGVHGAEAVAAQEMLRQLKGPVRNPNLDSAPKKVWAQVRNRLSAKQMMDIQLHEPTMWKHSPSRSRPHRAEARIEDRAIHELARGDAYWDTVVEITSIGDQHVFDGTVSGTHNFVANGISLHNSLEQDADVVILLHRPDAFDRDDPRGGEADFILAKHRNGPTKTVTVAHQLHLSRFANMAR
The experiment in a line: DnaB intein splicing inhibitors, dose response, biochemical, cell-free fluorescence (AID 449749). The format is functional.

Experiment [9] deals with T1, Hexokinase HKDC1. The experiment in a line: SAR analysis of small molecule inhibitors of hexokinase domain containing I (HKDC1) - Set 3. [Related pubchem assays (depositor defined):AID493160, AID493190]. The format is functional.

Sequence of Cystic fibrosis transmembrane conductance regulator/Golgi-associated PDZ and coiled-coil motif-containing protein (P13569 whole entry, other chains not shown): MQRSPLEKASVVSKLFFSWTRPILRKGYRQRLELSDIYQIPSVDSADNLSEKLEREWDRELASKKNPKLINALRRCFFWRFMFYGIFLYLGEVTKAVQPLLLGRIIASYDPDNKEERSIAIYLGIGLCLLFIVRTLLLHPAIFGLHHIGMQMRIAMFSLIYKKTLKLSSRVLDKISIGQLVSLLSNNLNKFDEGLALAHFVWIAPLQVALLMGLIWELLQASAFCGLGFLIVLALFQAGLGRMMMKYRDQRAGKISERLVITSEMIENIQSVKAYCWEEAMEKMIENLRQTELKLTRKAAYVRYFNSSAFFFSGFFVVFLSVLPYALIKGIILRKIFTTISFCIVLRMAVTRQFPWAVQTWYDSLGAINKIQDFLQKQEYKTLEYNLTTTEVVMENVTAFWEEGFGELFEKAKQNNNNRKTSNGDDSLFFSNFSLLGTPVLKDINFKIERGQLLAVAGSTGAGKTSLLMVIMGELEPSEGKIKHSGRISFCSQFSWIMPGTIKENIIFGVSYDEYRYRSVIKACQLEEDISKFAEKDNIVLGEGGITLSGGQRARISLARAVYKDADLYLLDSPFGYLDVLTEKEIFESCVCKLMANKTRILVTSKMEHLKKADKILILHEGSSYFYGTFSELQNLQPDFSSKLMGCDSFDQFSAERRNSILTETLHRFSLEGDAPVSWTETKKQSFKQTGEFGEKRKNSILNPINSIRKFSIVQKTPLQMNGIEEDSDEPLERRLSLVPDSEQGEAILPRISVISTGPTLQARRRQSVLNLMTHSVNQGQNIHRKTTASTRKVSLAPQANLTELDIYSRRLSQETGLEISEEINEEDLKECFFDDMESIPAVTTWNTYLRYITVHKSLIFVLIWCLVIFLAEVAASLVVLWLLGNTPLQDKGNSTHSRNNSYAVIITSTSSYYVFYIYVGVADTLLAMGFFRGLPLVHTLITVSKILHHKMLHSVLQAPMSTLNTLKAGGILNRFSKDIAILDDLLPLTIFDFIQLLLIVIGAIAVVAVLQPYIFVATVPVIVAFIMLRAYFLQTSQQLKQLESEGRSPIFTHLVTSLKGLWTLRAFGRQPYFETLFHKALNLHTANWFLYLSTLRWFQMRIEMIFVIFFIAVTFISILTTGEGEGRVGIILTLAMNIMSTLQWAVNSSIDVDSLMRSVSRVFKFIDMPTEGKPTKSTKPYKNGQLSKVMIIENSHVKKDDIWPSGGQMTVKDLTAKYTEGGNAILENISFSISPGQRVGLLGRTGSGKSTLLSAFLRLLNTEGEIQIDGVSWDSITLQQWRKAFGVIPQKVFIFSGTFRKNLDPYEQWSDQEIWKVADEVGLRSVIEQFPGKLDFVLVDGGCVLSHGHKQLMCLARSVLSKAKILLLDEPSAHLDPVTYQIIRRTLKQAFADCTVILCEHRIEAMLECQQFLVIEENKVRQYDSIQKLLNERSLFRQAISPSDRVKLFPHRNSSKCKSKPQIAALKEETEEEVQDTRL

`CC(=O)NC1C(=O)N(CCN2CCOCC2)c2ccc(Br)cc21` (centres undefined): the IC50 in experiment [1] is 8.67 µM (active); in experiment [3] it was 5.24 µM (active); in [7], 16.3 µM (inactive); in experiment [9], 6.88 µM (active). Moreover, the EC50 in experiment [2] was 11 µM (active). For the same molecule, the AC50 in experiment [4] was 82.6 µM (active); in [5], 24.8 µM (active); in [6] it was 12.6 µM (active); in experiment [8], 14.3 µM (active).

The record behind these values is ChEMBL document CHEMBL1201862, “PubChem BioAssay data set” (2004).
